Results as given in US7473699B2, “3-cyclyl-5-(nitrogen-containing 5-membered ring)methyl-oxazolidinone derivatives and their use as antibacterial agents” (AstraZeneca AB, priority 2002, dated 2009).
In brackets after ≈: the same amount, converted by molar mass. Read-outs that look alike come from different tables or passages of the source.

Columns and labels:
[1] = tested on: Staphylococcus aureus MSQS; assay: MIC, agar-dilution, Staphylococcus aureus MSQS; type: cell-based; conditions: Staphylococcus aureus MSQS (methicillin sensitive and quinolone sensitive)
Experimental: (§1) The following results were obtained on a standard in-vitro test system. The activity is described in terms of the minimum inhibitory concentration (MIC) determined by the agar-dilution technique with an inoculum size of 10^4 CFU/spot. Typically, compounds are active in the range 0.01 to 256 μg/ml.
(§2) Staphylococci were tested on agar, using an inoculum of 10^4 CFU/spot and an incubation temperature of 37° C. for 24 hours—standard test conditions for the expression of methicillin resistance.

[2] = tested on: Staphylococcus aureus MRQR; assay: MIC, agar-dilution, Staphylococcus aureus MRQR; type: cell-based; conditions: Staphylococcus aureus MRQR (methicillin resistant and quinolone resistant)
Experimental: as §1, §2

Streptococcus pneumoniae = assay: MIC, agar-dilution, Streptococcus pneumoniae; type: cell-based
Experimental: as §1
(§3) Streptococci and enterococci were tested on agar supplemented with 5% defibrinated horse blood, an inoculum of 10^4 CFU/spot and an incubation temperature of 37° C. in an atmosphere of 5% carbon dioxide for 48 hours—blood is required for the growth of some of the test organisms. Fastidious Gram negative organisms were tested in Mueller-Hinton broth, supplemented with hemin and NAD, grown aerobically for 24 hours at 37° C., and with an innoculum of 5×10^4 CFU/well.

Streptococcus pyogenes = assay: MIC, agar-dilution, Streptococcus pyogenes; type: cell-based
Experimental: as §1, §3

Haemophilus influenzae = assay: MIC, fastidious Gram negative organisms in Mueller-Hinton broth, Haemophilus influenzae; type: cell-based
Experimental: as §1, §3

Moraxella catarrhalis = assay: MIC, fastidious Gram negative organisms in Mueller-Hinton broth, Moraxella catarrhalis; type: cell-based
Experimental: as §1, §3

MAO-A = target: T1, MAO-A (Homo sapiens, UniProt P21397); assay: MAO-A standard in-vitro assay, human liver enzyme expressed in yeast; type: biochemical
T1 construct: made in house; host or cells: yeast
T1 sequence (P21397 1-527): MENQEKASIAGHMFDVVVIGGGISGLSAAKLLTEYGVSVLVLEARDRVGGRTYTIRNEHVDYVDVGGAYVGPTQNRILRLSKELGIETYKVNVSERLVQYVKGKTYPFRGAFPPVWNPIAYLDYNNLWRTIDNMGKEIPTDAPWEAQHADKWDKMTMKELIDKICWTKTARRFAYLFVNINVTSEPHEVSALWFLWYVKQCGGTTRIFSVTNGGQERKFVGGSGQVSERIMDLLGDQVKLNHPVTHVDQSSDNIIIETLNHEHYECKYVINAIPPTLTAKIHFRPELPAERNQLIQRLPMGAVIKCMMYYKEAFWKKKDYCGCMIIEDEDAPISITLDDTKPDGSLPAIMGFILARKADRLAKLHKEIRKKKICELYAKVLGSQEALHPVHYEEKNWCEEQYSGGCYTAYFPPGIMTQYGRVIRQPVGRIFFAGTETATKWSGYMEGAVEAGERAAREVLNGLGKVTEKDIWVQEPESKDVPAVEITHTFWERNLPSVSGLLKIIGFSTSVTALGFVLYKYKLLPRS
Experimental: The activity of the compounds of the invention against MAO-A was tested using a standard in-vitro assay based on human liver enzyme expressed in yeast as described in Biochem. Biophys. Res. Commun. 1991, 181, 1084-1088. Ki values were determined using serial two-fold dilutions from […] to 0.04 μM.

[3] = first line (strain not given), read-out: MIC

| MIC [1] | MIC [2] | MIC (Streptococcus pneumoniae; [3]) | MIC (Streptococcus pneumoniae; second line (strain not given)) | MIC (Streptococcus pyogenes) | MIC (Haemophilus influenzae) | MIC (Moraxella catarrhalis) | Ki (MAO-A) | SMILES |
| --- | --- | --- | --- | --- | --- | --- | --- | --- |
| 2 µg/mL | 4 µg/mL | 0.5 µg/mL | 0.5 µg/mL | 1 µg/mL | 2 µg/mL | 2 µg/mL | 16 µM | Cc1cn(C[C@H]2CN(c3ccc(C4=CC[S+]([O-])CC4)c(F)c3)C(=O)O2)nn1 (mixture of isomers) [Example 1, (5R)-3-[4-(1(R,S)-Oxo-3,6-dihydro-2H-thiopyran-4-yl)-3-fluorophenyl]-5-[(4-methyl)-1,2,3-triazol-1-ylmethyl]oxazolidin-2-one] |
| 2 µg/mL (≈ 5.31 µM) | 2 µg/mL (≈ 5.31 µM) | 1 µg/mL (≈ 2.66 µM) | 1 µg/mL (≈ 2.66 µM) | 1 µg/mL (≈ 2.66 µM) | 4 µg/mL (≈ 10.6 µM) | 2 µg/mL (≈ 5.31 µM) | 3.6 µM | O=C1O[C@@H](Cn2ccnn2)CN1c1ccc(C2=CC[S+]([O-])CC2)c(F)c1 (some centres unmarked) [Reference Example 1] |
|  |  |  |  |  |  |  | 0.5 µM | CC(=O)NC[C@H]1CN(c2ccc(C3=CC[S+]([O-])CC3)c(F)c2)C(=O)O1 (some centres unmarked) [Reference Example 2] |
